Experimental data reported in patent publication US20230016424A1, “HYBRID AMIDE DERIVATIVES OF AMPHOTERICIN B” (The Board of Trustees of the University of Illinois, priority 2019, published 2023).
≈ marks a conversion by molar mass, not a printed value. Where “and” joins values, the source holds several entries; their conditions need not be identical. Equal values may be shown once.

Key:
A. terreus = assay: MIC against moulds; assay type: cell-based; conditions: 6 isolates
Coccidioides immitis = assay: microbe, parasite or virus in culture; assay type: cell-based
Fonsecaea sp. = assay: MIC against moulds; assay type: cell-based; conditions: 6 isolates
A. flavus = assay: MIC against moulds; assay type: cell-based; conditions: 6 isolates
Blastomyces dermatitidis = assay: MIC against moulds; assay type: cell-based; conditions: 5 isolates
moulds (3 strains) = assay: MICavg moulds (3 strains); assay type: cell-based; set-up: unit not given beside the values
[1] = system: C. albicans SN250, C. albicans, C. krusei, C. glabrata, C. tropicalis, A. fumigatus 91, 1163, 1100; assay: Average MIC over the tested strains; assay type: cell-based; set-up: Avg. MIC of AmB amide: unit not given here; conditions: for MIC: average over the 8 listed strains; for Avg. MIC of AmB amide: value of the corresponding C16 amide of AmB
Candida krusei = assay: MIC against yeasts; assay type: cell-based; conditions: 2 isolates
A. niger = assay: MIC against moulds; assay type: cell-based; conditions: 6 isolates
human erythrocytes = assay: MHC hemolysis assay; assay type: cell-based
Experimental: MHC (FIG. 21B): The protocol for the hemolysis assay was adapted from the report of Paquet and coworkers (Chem. Eur. J. 2008, 14, 2465-2481). Whole human blood (sodium heparin) was purchased from Bioreclamation LLC (Westbury, N.Y.) and stored at 4° C. and used within two days of receipt. To a 2.0 mL eppendorf tube, 1 mL of whole human blood was added and centrifuged at 10,000 g for 2 minutes. The supernatant was removed and the erythrocyte pellet was washed with 1 mL of sterile saline and centrifuged at 10,000 g for 2 minutes. The saline wash was repeated for a total of three washes. The erythrocyte pellet was suspended in 1 mL of RBC buffer (10 mM NaH2PO4, 150 mM NaCl, 1 mM MgCl2, pH 7.4) to form the erythrocyte stock suspension.
Compounds were prepared as >15 mM stock solutions in DMSO and serially diluted to the following concentrations with DMSO: 7689, 5126, 2563, 2050, 1538, 1025, 769, 513, 384, 256, 205, 154, 103, 77, 51, 26 μM. To a 0.2 mL PCR tube, 24 μL of RBC buffer and 1 μL of compound stock solution were added, which gave final concentrations of […]. Positive and negative controls were prepared by adding 1 μL of DMSO to MilliQ water or RBC buffer, respectively to 0.2 mL PCR tube. To each PCR tube, 0.63 μL of the erythrocyte stock suspension was added and mixed by inversion. The samples were incubated at 37° C. for 2 hours. The samples were mixed by inversion and centrifuged at 10,000 g for 2 minutes. 15 μL of the supernatant from each sample was added to a 384-well place. Absorbances were read at 540 nm using a Biotek H1 Synergy Hybrid Reader (Wanooski, Vt.). Experiments were performed in triplicate and the reported MHC represents an average of three experiments.

Different Yeasts = assay: Average MIC against different yeasts; assay type: cell-based; set-up: MICavg yeast (46 strains): unit not given beside the values; conditions: for MIC: 46 isolates
Licht. Ramosa = assay: MIC against moulds; assay type: cell-based; conditions: 6 isolates
Cryptococcus neoformans = assay: MIC against yeasts; assay type: cell-based; conditions: 10 isolates
Claophialophora bantiana = assay: MIC against moulds; assay type: cell-based; conditions: 6 isolates
Scedosporium aurantiacum = assay: MIC against rare moulds resistant to AmB; assay type: cell-based; conditions: 4 isolates
Rhodotorula sp. = assay: MIC against yeasts; assay type: cell-based; conditions: 6 isolates
CYP1A2 = molecular target: T1, CYP1A2 (Homo sapiens, UniProt P05177); assay: CYP Inhibition; assay type: in vitro ADME; conditions: human liver microsome; for P450 1A2 % Inhibition: 10 um
T1 construct: from tissue; host or cells: human liver microsomes
T1 sequence (P05177 1-516): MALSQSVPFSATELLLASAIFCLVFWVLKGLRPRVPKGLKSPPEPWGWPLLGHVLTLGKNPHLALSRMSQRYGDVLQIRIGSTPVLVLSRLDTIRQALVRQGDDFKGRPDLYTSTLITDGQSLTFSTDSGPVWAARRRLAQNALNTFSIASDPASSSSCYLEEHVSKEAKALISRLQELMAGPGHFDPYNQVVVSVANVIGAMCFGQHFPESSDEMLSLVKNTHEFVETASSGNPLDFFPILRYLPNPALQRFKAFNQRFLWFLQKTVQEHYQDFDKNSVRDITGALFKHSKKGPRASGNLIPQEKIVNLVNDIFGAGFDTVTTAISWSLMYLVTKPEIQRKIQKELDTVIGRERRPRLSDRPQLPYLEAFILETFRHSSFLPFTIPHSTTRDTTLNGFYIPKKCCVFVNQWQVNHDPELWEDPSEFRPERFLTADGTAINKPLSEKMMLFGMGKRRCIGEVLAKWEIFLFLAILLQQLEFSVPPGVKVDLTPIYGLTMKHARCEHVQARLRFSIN
Experimental: The working solutions of the test compounds and the standard inhibitors were prepared in DMSO (100× final concentration). 20 ul of substrate solution (5 in 1 cocktail) was added to the wells followed by 2 ul test compound solution was added. 158 ul of human liver microsome (HLM) was added to all the wells of the incubated plate and warmed to 37° C. for 10 mins. 20 ul of NADPH cofactor solution was then added to all the wells of incubated plate and incubated at 37° C. for 10 mins. At the time point the reaction was quenched by adding 400 uL of cold stop solution. The samples were centrifuged at 4000 rpm for 20 mins to precipitate protein. 100 ul supernatant was diluted with 100 ul of ultra pure water and analyzed using LCMS.

Fusarium oxysporum = assay: MIC against moulds; assay type: cell-based; conditions: 6 isolates
[2] = hemolysis, human erythrocytes, 37° C. 2 hours
[3] = Table 12, C16 amides of C2'epiAmB
[4] = Table 13, C16 amides of C2’epiAmB

C[C@@H]1[C@H](O)[C@@H](C)/C=C/C=C/C=C/C=C/C=C/C=C/C=C/[C@H](OC2O[C@H](C)[C@@H](O)[C@H](N)[C@@H]2O)C[C@@H]2O[C@](O)(C[C@@H](O)C[C@@H](O)[C@H](O)CC[C@@H](O)C[C@@H](O)CC(=O)O[C@H]1C)C[C@H](O)[C@H]2C(=O)O (some centres unmarked) [AmB, Amphotericin B]
MIC (A. terreus; Aspergillus terreus): 3 µM (≈ 2.77 µg/mL) | MIC (Coccidioides immitis; Coccidioides immitis, read-out: MIC Coccidioides immitis): 0.125 µM (≈ 0.116 µg/mL) | MIC (Fonsecaea sp.; Fonsecaea): < 0.03 µM | MIC (A. flavus; Aspergillus flavus): 1.16 µM (≈ 1.07 µg/mL) | MIC (Blastomyces dermatitidis; Blastomyces dermatitidis): < 0.03 µM | MICavg moulds (3 strains) (moulds (3 strains)): 0.92 | MIC [1]: 0.642 µM and 0.44 µM | MIC (Candida krusei; Pichia kudriavzevii): 1 µM (≈ 0.924 µg/mL) | MIC (A. niger; Aspergillus niger): 0.21 µM (≈ 0.194 µg/mL) | MHC (human erythrocytes; [2]): 8.4 µM | MHC (human erythrocytes; summary table, unit not given): 8.4 | MICavg yeast (46 strains) (Different Yeasts): 0.9 | MIC (Different Yeasts): 0.9 µM (≈ 0.832 µg/mL) | MIC (Licht. Ramosa): 0.15 µM (≈ 0.139 µg/mL) | MIC (Cryptococcus neoformans; Cryptococcus neoformans): 0.55 µM (≈ 0.508 µg/mL) | MIC (Claophialophora bantiana): 0.375 µM (≈ 0.347 µg/mL) | MIC (Scedosporium aurantiacum; Scedosporium aurantiacum): > 16 µM | MIC (Rhodotorula sp.; Rhodotorula): 1 µM (≈ 0.924 µg/mL) | inhibition at 10 min, 10 µM (CYP1A2; human liver microsomes, probe 5 in 1 substrate cocktail, read-out: P450 1A2 % Inhibition): 23.1% | MIC (Fusarium oxysporum; Fusarium oxysporum): 1.5 µM (≈ 1.39 µg/mL)

CC1C=CC=CC=CC=CC=CC=CC=CC(OC2OC(C)C(O)C(N)C2O)CC2OC(O)(CC(O)CC(O)C(O)CCC(O)CC(O)CC(=O)OC(C)C(C)C1O)CC(O)C2C(=O)NCCO (centres unmarked) [Compound BA]
MIC (A. terreus): 3.33 µM (≈ 3.22 µg/mL) | MIC Coccidioides immitis (Coccidioides immitis): 0.29 µM (≈ 0.28 µg/mL) | MIC (Fonsecaea sp.): 0.06 µM (≈ 0.058 µg/mL) | MIC (A. flavus): 2.67 µM (≈ 2.58 µg/mL) | MIC (Blastomyces dermatitidis): 0.6 µM (≈ 0.58 µg/mL) | MICavg moulds (3 strains) (moulds (3 strains)): 1.3 | Average MIC [1, 3]: 1.031 µM | Average MIC [1, 4]: 1030 µM | MIC [1]: 0.727 µM | Average MIC for AmB analogue ([1]; value of the corresponding AmB analogue, not of the C2’epi compound): 0.328 μM | Avg. MIC of AmB amide ([1]; not of the C2’epi compound): 0.18 | MIC (Candida krusei): 4 µM (≈ 3.87 µg/mL) | MIC (A. niger): 0.58 µM (≈ 0.561 µg/mL) | MHC (human erythrocytes; [2]): >500 µM | MHC (human erythrocytes; summary table, unit not given): >500 | MICavg yeast (46 strains) (Different Yeasts): 2.5 | MIC (Different Yeasts): 2.5 µM (≈ 2.42 µg/mL) | MIC (Licht. Ramosa): 1.1 µM (≈ 1.06 µg/mL) | MIC (Cryptococcus neoformans): 2 µM (≈ 1.93 µg/mL) | MIC (Claophialophora bantiana): 2 µM (≈ 1.93 µg/mL) | MIC (Scedosporium aurantiacum): >16 µM | MIC (Rhodotorula sp.): 3.3 µM (≈ 3.19 µg/mL) | P450 1A2 % Inhibition (CYP1A2): 0.0% | MIC (Fusarium oxysporum): 11.3 µM (≈ 10.9 µg/mL)

CC1C=CC=CC=CC=CC=CC=CC=CC(OC2OC(C)C(O)C(N)C2O)CC2OC(O)(CC(O)CC(O)C(O)CCC(O)CC(O)CC(=O)OC(C)C(C)C1O)CC(O)C2C(=O)NCCF (centres unmarked) [Compound BM]
MIC (A. terreus): 1.08 µM (≈ 1.05 µg/mL) | MIC Coccidioides immitis (Coccidioides immitis): 0.23 µM (≈ 0.223 µg/mL) | MIC (Fonsecaea sp.): <0.03 µM | MIC (A. flavus): 2.5 µM (≈ 2.42 µg/mL) | MIC (Blastomyces dermatitidis): 0.5 µM (≈ 0.485 µg/mL) | MICavg moulds (3 strains) (moulds (3 strains)): 1.7 | Average MIC [1, 3]: 0.844 µM | Average MIC [1, 4]: 840 µM | Avg. MIC of AmB amide ([1]; not of the C2’epi compound): 0.39 | MIC (Candida krusei): 2 µM (≈ 1.94 µg/mL) | MIC (A. niger): 3 µM (≈ 2.91 µg/mL) | MHC (human erythrocytes; summary table, unit not given): >100 | MICavg yeast (46 strains) (Different Yeasts): 2.3 | MIC (Different Yeasts): 2.3 µM (≈ 2.23 µg/mL) | MIC (Licht. Ramosa): 1 µM (≈ 0.969 µg/mL) | MIC (Cryptococcus neoformans): 2 µM (≈ 1.94 µg/mL) | MIC (Claophialophora bantiana): 1 µM (≈ 0.969 µg/mL) | MIC (Scedosporium aurantiacum): >16 µM | MIC (Rhodotorula sp.): 3.3 µM (≈ 3.2 µg/mL) | P450 1A2 % Inhibition (CYP1A2): 7.8% | MIC (Fusarium oxysporum): 9.3 µM (≈ 9.01 µg/mL)
